Reference: ChEMBL document CHEMBL1127817, “Antitumor agents. 150. 2',3',4',5',5,6,7-substituted 2-phenyl-4-quinolones and related compounds: their synthesis, cytotoxicity, and inhibition of tubulin polymerization” (J Med Chem, 1994)

Legend:
HCT-116 = test: In vitro inhibition of tumor cell growth of HCT116, colon cancer cell line; type: functional; conditions: Homo sapiens
NCI-H226 = test: In vitro inhibition of tumor cell growth of NCI-H226, a non small-cell lung cancer cell line; type: functional; conditions: Homo sapiens
OVCAR-3 = test: In vitro inhibition of tumor cell growth of OVCAR-3, ovarian cancer cell line; type: functional; conditions: Homo sapiens
RXF 393 = test: In vitro inhibition of tumor cell growth of RXF-393, renal cancer cell line; type: functional; conditions: Homo sapiens
SF-268 = test: In vitro inhibition of tumor cell growth of SF-268, CNS tumor cell line; type: functional; conditions: Homo sapiens
SK-MEL-5 = test: In vitro inhibition of tumor cell growth of SK-Mel-5, melanoma cell line; type: functional; conditions: Homo sapiens
SF-295 = test: In vitro inhibition of tumor cell growth of SF-295, CNS tumor cell line; type: functional; conditions: Homo sapiens
Tubulin beta chain = Tubulin beta chain (Bos taurus, UniProt Q6B856); test: Inhibition of tubulin polymerization; type: functional
KM-20L2 = test: In vitro inhibition of tumor cell growth of KM20L2, colon cancer cell line; type: functional; conditions: Homo sapiens
DMS-114 = test: In vitro inhibition of tumor cell growth of DMS114, a small-cell lung cancer cell line; conditions: Homo sapiens

Chain of Tubulin beta chain (Q6B856 whole entry): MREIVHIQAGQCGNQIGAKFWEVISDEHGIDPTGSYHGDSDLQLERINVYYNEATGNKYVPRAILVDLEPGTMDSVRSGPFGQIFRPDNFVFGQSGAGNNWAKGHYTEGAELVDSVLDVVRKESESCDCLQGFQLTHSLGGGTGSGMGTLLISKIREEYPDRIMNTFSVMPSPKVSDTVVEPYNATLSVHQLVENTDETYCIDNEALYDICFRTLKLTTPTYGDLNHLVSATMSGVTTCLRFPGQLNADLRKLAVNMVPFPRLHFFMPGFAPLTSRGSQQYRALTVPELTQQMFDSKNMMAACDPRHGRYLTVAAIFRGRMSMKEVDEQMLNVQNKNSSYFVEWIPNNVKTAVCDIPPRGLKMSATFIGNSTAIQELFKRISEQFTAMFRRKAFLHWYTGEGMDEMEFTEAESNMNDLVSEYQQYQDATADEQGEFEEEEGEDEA

SMILES | GI50 (HCT-116) [µM] | GI50 (NCI-H226) [µM] | GI50 (OVCAR-3) [µM] | GI50 (SK-MEL-5) [µM] | IC50 (Tubulin beta chain) [µM] | GI50 (DMS-114) [µM] | GI50 (RXF 393) [µM] | GI50 (SF-268) [µM] | GI50 (SF-295) [µM] | GI50 (KM-20L2) [µM]
COc1cc(-c2cc(O)c3cc4c(cc3n2)OCO4)cc(OC)c1OC | 74.1 | > 100 | > 100 | 93.3 | > 40 | 83.2 | 21.9 | 32.4 | 32.4 | > 100
Oc1cc(-c2ccccn2)nc2cccc(F)c12 |  | > 100 | > 100 | 61.7 | > 40 | > 100 | > 100 |  | > 100 | > 100
Oc1cc(-c2ccc(Oc3ccccc3)cc2)nc2cc3c(cc12)OCO3 | > 100 |  | > 100 | > 100 | > 40 | > 100 | > 100 | > 100 | > 100 | > 100
CN(C)c1ccc(-c2cc(O)c3ccccc3n2)cc1 | > 100 | > 100 | > 100 |  | > 40 | > 100 | > 100 | > 100 | > 100 | > 100
COc1ccc(-c2cc(O)c3cc(Cl)ccc3n2)cc1 | > 100 | > 100 | > 100 | > 100 | > 40 | > 100 | > 100 | > 100 | > 100 | > 100
COc1ccc2c(c1)CCc1c-2nc2cc3c(cc2c1O)OCO3 | > 100 | > 100 | > 100 | > 100 |  |  | > 100 | > 100 | > 100 | > 100
COc1ccc(-c2cc(O)c3cc(OC)c(OC)cc3n2)cc1OC | > 100 | > 100 | > 100 | > 100 | > 40 |  | 67.6 | > 100 | > 100 | 
COc1ccc(-c2cc(O)c3cc(OC)ccc3n2)cc1 | > 100 | > 100 | > 100 | > 100 | > 40 | > 100 | > 100 | 36.3 |  | > 100
COc1cccc(-c2cc(O)c3ccccc3n2)c1 | 5.75 | 2.82 | 5.5 |  | 1.4 | 5.62 | 6.61 | 6.76 | 2.29 | 8.51
COc1cccc(-c2cc(O)c3cc(OC)c(OC)cc3n2)c1 | 58.9 | 21.4 | 33.9 |  | 4.3 | 55 | 33.1 | 50.1 | 40.7 | 24
CN(C)c1cccc(-c2cc(O)c3ccccc3n2)c1 | 58.9 | 29.5 | 41.7 |  | 1.5 | 45.7 | 35.5 | 75.9 | 28.2 | 34.7
COc1ccc2nc(-c3ccc(O)cc3)cc(O)c2c1 | 0.209 | 0.209 | 0.302 | 0.288 | 5.6 | 0.178 | 0.17 | 0.417 | 0.245 | 0.407
COc1cc2nc(-c3cccc(N(C)C)c3)cc(O)c2cc1OC | 5.01 | 1.86 | < 1 |  | 15 | 4.79 | 2.24 | 5.25 | 1.95 | 2
Oc1cc(-c2ccccn2)nc2ccc(Cl)cc12 | 26.3 | 46.8 | 63.1 | 26.3 | > 40 | 13.8 | 33.9 | 23.4 | 51.3 | 39.8
Oc1cc(-c2ccccn2)nc2cc(F)ccc12 | 43.7 | > 100 |  | 44.7 | > 40 | 52.5 |  | 29.5 | > 100 | > 100
COc1ccc(-c2cc(O)c3ccc(F)cc3n2)cc1 | > 100 | > 100 | > 100 | > 100 | > 40 | > 100 | > 100 | > 100 | > 100 | > 100
COc1cc(-c2cc(O)c3ccccc3n2)cc(OC)c1OC | > 100 | > 100 | > 100 |  | > 40 | > 100 | > 100 | > 100 | > 100 | > 100
COc1ccc2nc(-c3ccccn3)cc(O)c2c1 | 33.9 | 36.3 | > 100 | 28.2 | > 40 | 22.4 | 2.51 | 24 | 51.3 | 35.5
COc1ccc(CCc2cc(OC)c(OC)c(OC)c2)cc1O |  |  |  |  | 0.63 |  |  |  |  | 
COc1cc2nc(-c3ccccc3)cc(O)c2cc1OC |  |  |  |  | 18 |  |  |  |  | 
Oc1c2c(nc3cc4c(cc13)OCO4)-c1ccccc1CCC2 | 28.2 | > 100 | > 100 | > 100 | > 40 |  | > 100 | > 100 | 19.5 | 

The next lines start with results.

GI50 (HCT-116) [µM] | GI50 (NCI-H226) [µM] | GI50 (OVCAR-3) [µM] | GI50 (SK-MEL-5) [µM] | IC50 (Tubulin beta chain) [µM] | GI50 (DMS-114) [µM] | SMILES | GI50 (RXF 393) [µM] | GI50 (SF-268) [µM] | GI50 (SF-295) [µM] | GI50 (KM-20L2) [µM]
> 100 | > 100 | > 100 | > 100 | > 40 | > 100 | COc1ccc(-c2cc(O)c3cc4c(cc3n2)OCO4)cc1OC | > 100 | > 100 | > 100 | > 100
0.0708 | 0.316 | 0.162 | 0.0355 | 0.63 |  | Oc1cc(-c2ccccc2)nc2cc3c(cc12)OCO3 | 0.112 | 0.0302 | 0.191 | 0.182
> 100 | > 100 | > 100 | > 100 | > 40 | 29.5 | COc1ccc(-c2cc(O)c3cc4c(cc3n2)OCO4)c(OC)c1OC | > 100 | > 100 | 75.9 | > 100
> 100 | > 100 | > 100 | > 100 | > 40 | > 100 | Oc1c2c(nc3cc4c(cc13)OCO4)-c1ccccc1CC2 | > 100 | > 100 | > 100 | > 100
40.7 | 93.3 | > 100 | 42.7 | > 40 | 26.3 | COc1ccc(-c2cc(O)c3cc4c(cc3n2)OCO4)c(OC)c1 | 45.7 | 63.1 | 45.7 | 42.7
29.5 | 35.5 | 30.9 | 7.76 | 18 | 32.4 | Oc1cc(-c2ccc[nH]2)nc2cc3c(cc12)OCO3 | 15.8 | > 100 | 33.9 | 20
> 100 | > 100 | > 100 | > 100 | > 40 | > 100 | CN(C)c1ccc(-c2cc(O)c3cc4c(cc3n2)OCO4)cc1 | > 100 | > 100 | > 100 | > 100
2.82 | 2.88 | 2.24 | 2.19 | 2.3 |  | Oc1cc(/C=C/c2ccccc2)nc2cc3c(cc12)OCO3 | 4.27 | 7.08 | 3.02 | 
3.24 | 6.31 | 4.9 | 4.07 | 5.5 | 5.01 | COc1ccc(OC)c(-c2cc(O)c3cc4c(cc3n2)OCO4)c1 | 3.02 | 8.32 | 6.61 | 6.92
38 | 39.8 | 19.5 | 25.1 | 1.1 | 24 | Oc1cc(-c2ccc3c(c2)OCO3)nc2cc3c(cc12)OCO3 | 20.9 | 46.8 | 29.5 | 26.3
> 100 | > 100 | > 100 | > 100 | 1.3 | > 100 | Oc1cc(-c2c[nH]c3ccccc23)nc2cc3c(cc12)OCO3 | > 100 | > 100 | 91.2 | > 100
4.79 | 6.31 | 7.94 | 1.35 | 2.2 | 6.76 | Oc1cc(-c2cccs2)nc2cc3c(cc12)OCO3 | 2.04 | 11.2 | 3.24 | 14.5
39.8 | 24.5 | 42.7 | 13.5 | 23 | 37.2 | Oc1cc(-c2ccco2)nc2cc3c(cc12)OCO3 | 25.1 | 41.7 | 28.2 | 21.4
0.372 | 0.316 | 0.245 | 0.195 | 0.7 | 0.407 | CN(C)c1cccc(-c2cc(O)c3cc4c(cc3n2)OCO4)c1 | 0.24 | 0.741 | 0.24 | 0.229
